Assay results from US9675595B2, “Synergistic combinations of PI3K- and MEK-inhibitors” (Novartis AG, priority 2011, dated 2017).

Tested on: Melanoma cell lines
Experiment: Cell line testing, dose matrix, Example 3, melanoma panel
Format: cell-based
Details: melanoma lines with activating NRAS mutation and BRAF mutants
Procedure: The combination of PI3K inhibitor COMPOUND A and MEK inhibitor COMPOUND B, as defined above, was tested across 38 cell lines from three tissue types (7 pancreas, 10 lung, and 21 melanoma). Each combination was tested in a partially-filled “dose matrix” constructed as follows: Each single drug was dispensed into growth media at a top concentration (11 μM for COMPOUND A or 2.7 μM for COMPOUND B), and serially diluted by 3× to yield a 7 point series covering a factor of 729 in concentration. The compounds were then combined at all pairs of the 2nd through the 6th concentrations, and this dose matrix was extended by also combining the top and bottom concentrations with each other. […] In order to identify cytotoxic treatments, we also determined “Day 0” cell populations at the start of drug treatment.
Cell responses at each treatment were measured using simple inhibitions I=1−T/V, where T is the treated well's raw response and V is the median untreated level between replicate wells on the plate. Cytotoxicity measurements were measured using a “Growth Inhibition” GI=1−(T−V0)/[T<V0? […] The “Synergy Score” SLoewe=ΣX,Y lnfX lnfY max(0,Idata) max(0,Idata−ILoewe) was calculated from the differences between the data Idata and the dose-additive surface ILoewe, across all combined concentrations X,Y, and weighted by the measured inhibition and the single agent dilution factors fX, fY. […]

Compound: Cc1nc(NC(=O)N2CCC[C@H]2C(N)=O)sc1-c1ccnc(C(C)(C)C(F)(F)F)c1 [COMPOUND A, (S)-pyrrolidine-1,2-dicarboxylic acid 2-amide 1-({4-methyl-5-[2-(2,2,2-trifluoro-1,1-dimethyl-ethyl)-pyridin-4-yl]-thiazol-2-yl}-amide)]
- response as a single agent: weak responses
